These results are taken from patent US7863302B2, “Compounds and methods for modulating FX-receptors” (Eli Lilly and Company, priority 2006, dated 2011).

For orientation: EC50 means the midpoint of the concentration-response curve.

Test [1] addresses T1, human FXR ligand-binding domain (Homo sapiens, UniProt Q96RI1).
T1 construct: 6-HIS
T1 sequence (Q96RI1 242-472 isoform Q96RI1-2 limits assumed): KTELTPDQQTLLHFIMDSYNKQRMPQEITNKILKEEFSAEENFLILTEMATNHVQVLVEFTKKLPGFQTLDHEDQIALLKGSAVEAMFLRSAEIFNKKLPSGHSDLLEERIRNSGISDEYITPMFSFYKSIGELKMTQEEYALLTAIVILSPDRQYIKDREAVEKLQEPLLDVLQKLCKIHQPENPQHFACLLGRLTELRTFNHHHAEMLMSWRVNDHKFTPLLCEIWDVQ
T1 sequence (Q15788 600-774 partner limits assumed): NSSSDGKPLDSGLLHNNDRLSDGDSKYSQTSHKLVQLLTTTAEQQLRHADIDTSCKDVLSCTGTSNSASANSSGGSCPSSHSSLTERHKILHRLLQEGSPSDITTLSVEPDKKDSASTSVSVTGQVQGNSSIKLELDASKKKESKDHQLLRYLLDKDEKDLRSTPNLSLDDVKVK
The test can be described thus: FXR-SRC-1 Cofactor Recruitment Assay (Alpha Screen). Type of test: biochemical. Particulars: SRC-1 FXR interaction, 4 hours at room temperature. The protocol:
FXR-SRC-1 Cofactor Recruitment Assay
Compounds are tested in concentration-response curves by an FXR-SRC-1 Cofactor Recruitment assay using the Alpha (Amplified Luminescent Proximity Homogeneous Assay) Screen technology according to the manufacturer instructions (Perkin Elmer). Briefly, purified 6-HIS-tagged human FXR ligand-binding domain (amino acids 242-472), purified GST-tagged human SRC-1 nuclear receptor-interacting domain (amino acids 220-394), Nickel Chelate donor beads (Perkin Elmer) and Anti-GST antibody acceptor beads (Perkin Elmer) are mixed together and 12 μL per well is aliquoted into 384 well plates. Add compounds in 3 μL per well for a total assay volume of 15 μL and incubate at room temperature in the dark for 4 hours. After incubation, compounds that bind FXR and induce the interaction between the FXR and SRC-1 would bring the two bead types into proximity generating luminescence that is quantified using a Packard Fusion instrument. Calculate EC50 values for each test compound. Compounds of the invention are found to be effective in the SRC-1 FXR interaction assay with EC50 of about 365-3000 nM.

The next test deals with LDLR−/− mice. Briefly: LDLR−/− Serum Lipid Modulation. Type of test: in vivo. To be noted: 10 mg/kg once daily by oral gavage for seven days, male LDLR−/− mice on western diet. The protocol:
LDLR−/− Serum Lipid Modulation
Acquire LDLR−/− mice from Jackson Laboratories (Stock number 002207, Bar Harbor, Me., USA). Acclimate animals for one week prior to study initiation. House mice individually in polycarbonate cages with filter tops, and maintain mice on a 12:12 hour light-dark cycle (lights on at 6:00 AM) at 21° C. Provide deionized water ad libitum and maintain for two weeks on ‘western diet’ TD 98137 Diet (42% fat, 0.15% cholesterol, Harlan Teklad) ad libitum. Optimize groups of five ten-week-old male LDLR−/− mice based on serum triglyceride and cholesterol levels. Dose groups once daily by oral gavage with various doses of the test compound for seven days. At the end of the seven-day dosing period, collect blood by tail clip for clinical chemistry assessment. Measure serum triglycerides, glucose, and total cholesterol using standard clinical chemistry instrumentation and reagents (Roche Diagnostic, Indianapolis, Ind., USA). Asphyxiate mice in a CO2 chamber. Perform cardiac puncture to collect blood samples for serum FPLC analysis. Assay pooled serum samples for lipoprotein cholesterol fraction values (VLDL, LDL, HDL) by separation on a size exclusion column (Superose® 6HR, Pharmacia Biotech AB, Uppsala, Sweden) with in-line determination of cholesterol.

In test [1], `Cc1cc(OCc2c(-c3ccccc3OC(F)(F)F)noc2C2CC2)ccc1-c1ccc2c(C(=O)O)cn(C)c2c1` [Example 7, 6-{4-[5-Cyclopropyl-3-(2-trifluoromethoxy-phenyl)-isoxazol-4-ylmethoxy]-2-methyl-phenyl}-1-methyl-1H-indole-3-carboxylic acid] came in with an EC50 of 1.3 µM. In the test on LDLR−/− mice, the lowers total cholesterol came to 63% and the lowers triglycerides worked out at 61%.
